# According to patent publication US20250302862A1, “SMALL RNA DRUG FOR INHIBITING ACTIVITY OF CANCER CELLS” (Institute of Basic Medical Sciences Chinese Academy of …, priority 2022, published 2025):
# Legend:
# [1] = test system: primary lung cancer Kras^LSL-G12Dp53^fl/fl (KP) mouse model; assay: Survival of mice with primary lung cancer; assay type: in vivo; conditions: 10 nmol sRNA in sphingosine(d18:1) delivery system daily by gavage until death, vs NC group
# From the text: The mouse model of primary lung cancer was Kras^LSL-G12Dp53^fl/fl (KP).
# Mice were weighed and assigned to the negative control group (NC group) and HQi-sRNA-2 group randomly. The NC group was the negative control, in which a sphingosine(d18:1)-NC-sRNA herbal medicine delivery system was constructed from NC-sRNA. The HQi-sRNA-2 group was the experimental group, in which a sphingosine(d18:1)-HQi-sRNA-2 herbal medicine delivery system was constructed from HQi-sRNA-2 and sphingosine(d18:1).
# The herbal medicine delivery system was constructed by heating and mixing 10 nmol of sRNA, 100 ug of sphingosine(d18:1) and 300 ul of sterile enzyme-free water in a water bath at 90° C. for 15 minutes.
# Each mouse with a uniform body weight was dosed by gavage. Each mouse was given 10 nmol of HQi-sRNA-2 mimic daily by gavage until death of the mouse.
# The survival time of each mouse was recorded, the survival curve was plotted, and statistical analysis was performed.
# Mice were weighed and assigned to the negative control group (NC group), MDM-sRNA-39 group and MDM-sRNA-163 group randomly. The NC group was the negative control, in which a sphingosine(d18:1)-NC-sRNA herbal medicine delivery system was constructed from NC-sRNA. The MDM-sRNA-39 group was an experimental group, in which a sphingosine(d18:1)-MDM-sRNA-39 herbal medicine delivery system was constructed from MDM-sRNA-39. The MDM-sRNA-163 group was an experimental group, in which a sphingosine(d18:1)-MDM-sRNA-163 herbal medicine delivery system was constructed from MDM-sRNA-163.
# [2] = test system: pancreatic cancer BXPC-3 cells; assay: Cell invasion (Matrigel Transwell); assay type: cell-based, human; conditions: 100 nmol/L, jetPRIME, 72 h
# Description: 1) Matrigel basement membrane matrix was thawed on crushed ice one night before and diluted with serum-free medium to a final concentration of 200-300 ug/mL. 100 uL of the diluted Matrigel was added to each upper chamber, let stand at 37° C. for 30 min, and the supernatant was aspirated. ASPC-1 cells and BXPC-3 cells with a cell density of more than 90% in 10 cm^2 dishes were digested and resuspended with 1 mL of serum-free medium and counted. 100,000 cells (100 uL) were plated in the upper chamber, and complete medium with 10% FBS was added to the lower chamber of each chamber. […]
# 1) Matrigel basement membrane matrix was thawed on crushed ice one night before and diluted with serum-free medium to a final concentration of 200-300 ug/mL. […] BXPC-3 cells with a cell density of more than 90% in 10 cm^2 dishes were digested and resuspended with 1 mL of serum-free medium and counted. […]
# breast cancer MCF7 cells = assay: Apoptosis detection (Annexin V / PI); assay type: cell-based, human; conditions: 100 nmol/L, 48 h
# Description: 1) MCF-7 cells with a cell density of more than 90% in 10 cm^2 dishes were plated in 12-well plates according to the cell growth rate, and transfected after 12 h, and the groups were divided as follows: • blank control group (4 wells): 200 uL of opti-MEM per well • negative control group (NC group) and experimental group (3 wells each): • A. 100 uL of opti-MEM and 2 uL of iMax were mixed well for 5 min • B. 100 uL of opti-MEM and 5 uL of small RNA (final concentration 100 nmol/L) were mixed well • C. solution A and solution B were mixed well and let stand for 15 min, and then was added to each well at a 200 uL system • Note: 100 uL of nuclease-free water was added to 2 nmol of small RNA dry powder for dissolution at a storage concentration of 20 umol/L
# The supernatant and cells were collected after 48 h and washed twice with pre-chilled PBS. The 4 tubes of cells in the blank control group were added respectively with: (1) 200 uL of 1× binding buffer; (2) 200 uL of 1× binding buffer and 5 uL of Annexin V stain; (3) 200 uL of 1× binding buffer and 5 uL of PI stain; (4) 200 uL of 1× binding buffer, 5 uL of Annexin V stain and 5 uL of PI stain. […] The live cell population and the position of quadrant gate were selected according to the blank control group, and then the apoptosis of the NC group and the experimental group was detected. […]
Substance,survival of mice with primary lung cancer [1],cell invasion [2],apoptosis (breast cancer MCF7 cells)
"HQi-sRNA-2: small RNA derived from Scutellaria baicalensis, sequence AUGGUUCGAUUCCGGAGAGGG (listed as RNA, chemistry not given here)",significantly prolonged,,
"MDM-sRNA-163: small RNA derived from Maytenus hookeri, sequence UGACUCUAGUCCGACUUUGUGAAAUGACU (listed as RNA, chemistry not given here)",significantly prolonged,inhibits,promotes
"MDM-sRNA-39: small RNA derived from Maytenus hookeri, sequence GGGAUUGUAGUUCAAUUGGUCAGAGCACC (listed as RNA, chemistry not given here)",significantly prolonged,inhibits,promotes
